Experimental data from publication PMC7658267, “Effects of CYP46A1 Inhibition on Long-Term-Depression in Hippocampal Slices ex vivo and 24S-Hydroxycholesterol Levels in Mice in vivo” (Frontiers in Molecular Neuroscience, 2020).

Assays:
CYP46A1 [1] = molecular target: T1, CYP46A1 (Homo sapiens, UniProt Q9Y6A2); test: recombinant human CYP46A1 microsomes, cholesterol to 24-hydroxycholesterol, LC-MS/MS ([…] with testosterone as substrate); format: biochemical
CYP46A1 [2] = molecular target: T1, CYP46A1; test: turnover to 24-hydroxycholesterol by human CYP46A1 microsomes, LC-MS/MS; format: biochemical

T1 sequence (Q9Y6A2 whole entry): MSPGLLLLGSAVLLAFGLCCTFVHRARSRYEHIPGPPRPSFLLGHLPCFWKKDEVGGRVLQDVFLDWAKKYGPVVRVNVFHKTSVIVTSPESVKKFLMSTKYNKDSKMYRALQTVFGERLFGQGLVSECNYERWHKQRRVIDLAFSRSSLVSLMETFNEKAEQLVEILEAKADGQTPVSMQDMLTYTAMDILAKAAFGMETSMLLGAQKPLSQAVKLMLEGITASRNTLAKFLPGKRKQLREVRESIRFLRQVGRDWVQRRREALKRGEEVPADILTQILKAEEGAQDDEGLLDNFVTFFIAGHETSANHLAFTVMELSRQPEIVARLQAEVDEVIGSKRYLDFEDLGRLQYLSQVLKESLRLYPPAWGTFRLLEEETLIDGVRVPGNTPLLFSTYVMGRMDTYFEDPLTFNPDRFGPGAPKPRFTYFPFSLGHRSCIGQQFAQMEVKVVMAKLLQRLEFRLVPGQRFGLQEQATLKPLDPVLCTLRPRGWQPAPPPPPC

SMILES | IC50 (CYP46A1 [1]) [µM] | turnover to 24-hydroxycholesterol by human CYP46A1 microsomes, LC-MS/MS (CYP46A1 [2])
C[C@@H](c1ncncc1F)[C@](O)(Cn1cncn1)c1ccc(F)cc1F [Voriconazole] | 12.2 | –
CC(C)CCC[C@@H](C)[C@H]1CC[C@H]2[C@@H]3CC=C4C[C@@H](O)CC[C@]4(C)[C@H]3CC[C@]12C [cholesterol] | – | We also developed an in vitro assay using cholesterol as a substrate.
